Legend:
Assay type in all cases: cell-based, human
[1] = test system: pTyr in Ha-(Val12)-ras transfected HB4a cells; assay: Western blot of tyrosine phosphorylation (pTyr) after GW2016 treatment, FIG. 2; conditions: 1 μM or 5 μM GW2016/72 hours
Method: (§1) The HB4a cell line was derived from human mammary luminal tissue. HB4a-erbB2 and HB4a-ras cell lines were generated by overexpression of erbB2 and mutant Ha-(Val-12)-ras in HB4a cell line. The S1 cell line was established by sub-cloning ErbB-2 transfected HB4a (see Harris R A, Eichholtz T J, Hiles J D, Page M J and O'Hare M J. (1999). Int J. Cancer. 80, 477, 484.)
(§2) HB4a cells grew in RPMI 1640 supplemented with L-glutamine, 10% FBS (Hyclone), 10 ug/ml hydrocortisone, and 5 ug/ml insulin. S1 and ras transfected cells were cultured in RPMI 1640 supplemented with L-glutamine, 10% FBS and 50 μg/ml hygromycin. Cell cultures were maintained in a humidified atmosphere of 5% CO2 at 37° C.
(§3) (a) The dual EGFR/erbB-2 inhibitor N-{3-Chloro-4-[(3-fluorobenzyl)oxy]phenyl}-6-[5-({[2-(methanesulphonyl)ethyl]amino}methyl)-2-furyl]-4-quinazolinamine and the cRaf-1 inhbitor of 3-(3,5-Dibromo-4-hydroxy-benzylidene)-5-iodo-1,3-dihydro-indol-2-one were dissolved in 100% DMSO to form solutions of 1, 5, 10, and 20 μM concentrations and tested on cells in growth medium for 3 continuous days. […]
(§4) Whole cell extracts were prepared by scraping cells off petri dishes, washing the cell pellet twice in PBS, and then resuspending the pellet in two-packed-cell volumes of RIPA buffer (150 mM NaCl, 50 mM Tris-HCl, pH 7.5, 0.25% deoxycholate, 1% NP-40, 5 mM sodium orthovanadate, 2 mM sodium fluoride and a protease inhibitor cocktail). Protein concentrations were determined using a modification of the Bradford method (Bio-Rad Laboratory). Steady state levels of total erbB-2, EGFR, Ras, Erk1/2, pErk1/2 and pTyr protein were assessed by Western blot which was carried out as follows: equal amounts of proteins was resolved by 7.5% SDS polyacrylamide gel electrophoresis under reducing conditions. […] Efficiency and equal loading of proteins was evaluated by Ponceau S staining. […]
(§5) HB4a cells growing in RPMI 1640 supplemented with L-glutamine, 10% FBS (Hyclone), 10 ug/ml hydrocortisone, and 5 μg/ml insulin. […] Protein concentrations were determined using a modification of the Bradford method (Bio-Rad Laboratory).

[2] = test system: pTyr in erbB-2 transfected HB4a cells; assay: as above; conditions: 1 μM or 5 μM GW2016/72 hours
Method: as §1, §2, §3, §4, §5

[3] = test system: pTyr in parental HB4a cells; assay: as above; conditions: 1 μM or 5 μM GW2016/72 hours
Method: as §1, §2, §3, §4, §5

[4] = test system: pErk1/Erk2 in Ha-(Val12)-ras transfected HB4a cells; assay: Western blot of MAPK activation (pErk1/Erk2) after GW2016 treatment, FIG. 3; conditions: Ha-(Val 12)-ras transfected HB4a cells; 1 μM or 5 μM GW2016/72 hours
Method: as §1, §2, §3, §4, §5

[5] = test system: pErk1/Erk2 in erbB-2 transfected HB4a cells; assay: as above; conditions: 1 μM or 5 μM GW2016/72 hours
Method: as §1, §2, §3, §4, §5

[6] = test system: pErk1/Erk2 in parental HB4a cells; assay: as above; conditions: 1 μM or 5 μM GW2016/72 hours
Method: as §1, §2, §3, §4, §5

CS(=O)(=O)CCNCc1ccc(-c2ccc3ncnc(Nc4ccc(OCc5cccc(F)c5)c(Cl)c4)c3c2)o1 [GW2016, N-{3-Chloro-4-[(3-fluorobenzyl)oxy]phenyl}-6-[5-({[2-(methanesulphonyl)ethyl]amino}methyl)-2-furyl]-4-quinazolinamine]
effect on phosphorylation on tyrosine residues (pTyr), Western blot [1]: no effect
tyrosine phosphorylation (pTyr), Western blot [2]: reduction in tyrosine phosphorylation
tyrosine phosphorylation (pTyr), Western blot [3]: reduction in tyrosine phosphorylation
phosphorylation of Erk1/Erk2, Western blot [4]: no effect
pErk1/Erk2, Western blot [5]: decrease in pErk1/Erk2
Erk1/Erk2 phosphorylation, Western blot [6]: reduction in Erk1/Erk2 phosphorylation

— patent US20050176740A1, “Cancer treatment method comprising administering an erb-family inhibitor and a raf and/or ras inhibitor” (priority 2002, published 2005)
